Calls of active or inactive are those of the source. The rule behind the calls is not given here.
What was measured:
Salmonidae = assay: Binding affinity to salmon sperm DNA assessed as DNA intercalation at 0.04 mole fraction after 5 mins by UV-Vis spectroscopic method
[1] = Binding affinity to synthetic biotin-labeled 30-mer AT-rich duplex DNA in pH 7.4 EDTA buffer solution in presence of 0.05 M NaCl at 25 degC by QCM sensogram analysis
[2] = Binding affinity to synthetic biotin-labeled 30-mer GC-rich duplex DNA in pH 7.4 EDTA buffer solution in presence of 0.05 M NaCl at 25 degC by QCM sensogram analysis
[3] = Binding affinity to synthetic biotin-labeled 30-mer GC-rich duplex DNA in pH 7.4 EDTA buffer solution assessed as association rate constant in presence of 0.05 M NaCl at 25 degC by QCM sensogram analysis
[4] = Binding affinity to synthetic biotin-labeled 30-mer GC-rich duplex DNA in pH 7.4 EDTA buffer solution assessed as dissociation rate constant in presence of 0.05 M NaCl at 25 degC by QCM sensogram analysis
[5] = Binding affinity to synthetic biotin-labeled 30-mer AT-rich duplex DNA in pH 7.4 EDTA buffer solution assessed as association rate constant in presence of 0.05 M NaCl at 25 degC by QCM sensogram analysis
[6] = Binding affinity to synthetic biotin-labeled 30-mer AT-rich duplex DNA in pH 7.4 EDTA buffer solution assessed as dissociation rate constant in presence of 0.05 M NaCl at 25 degC by QCM sensogram analysis
[7] = Binding affinity to synthetic biotin-labeled 30-mer AT-rich duplex DNA in pH 7.4 EDTA buffer solution assessed as ratio of association rate constant to dissociation rate constant in presence of 0.05 M NaCl at 25 degC by QCM sensogram analysis
[8] = Binding affinity to synthetic biotin-labeled 30-mer GC-rich duplex DNA in pH 7.4 EDTA buffer solution assessed as ratio of association rate constant to dissociation rate constant in presence of 0.05 M NaCl at 25 degC by QCM sensogram analysis
[9] = Cytotoxicity against mouse Sarcoma 180 cells assessed as reduction in cell viability after 72 hrs by MTT assay; type: functional, cell-based; conditions: Sarcoma-180, 72 h
[10] = Cytotoxicity against mouse NIH/3T3 cells assessed as reduction in cell viability after 72 hrs by MTT assay; type: toxicity, cell-based, NIH3T3
[11] = Cytotoxicity against human HeLaS3 cells assessed as reduction in cell viability after 72 hrs by MTT assay; type: functional, cell-based; conditions: HeLa S3, 72 h
HeLa S3 = assay: Selectivity ratio of IC50 for human HeLaS3 cells to IC50 for mouse Sarcoma 180 cells; type: functional
[12] = Selectivity index, ratio of IC50 for mouse NIH/3T3 cells to IC50 for mouse Sarcoma 180 cells; type: functional
[13] = Binding affinity to synthetic biotin-labeled 30-mer GC-rich duplex DNA in pH 7.8 Tris-Hcl buffer solution assessed as association rate constant in presence of 0.1 M NaCl at 25 degC by QCM sensogram analysis
[14] = Binding affinity to synthetic biotin-labeled 30-mer GC-rich duplex DNA in pH 7.8 Tris-Hcl buffer solution assessed as dissociation rate constant in presence of 0.1 M NaCl at 25 degC by QCM sensogram analysis
[15] = Binding affinity to synthetic biotin-labeled 30-mer AT-rich duplex DNA in pH 7.8 Tris-Hcl buffer solution assessed as association rate constant in presence of 0.1 M NaCl at 25 degC by QCM sensogram analysis
[16] = Binding affinity to synthetic biotin-labeled 30-mer AT-rich duplex DNA in pH 7.8 Tris-Hcl buffer solution assessed as dissociation rate constant in presence of 0.1 M NaCl at 25 degC by QCM sensogram analysis
[17] = Binding affinity to synthetic biotin-labeled 30-mer GC-rich duplex DNA in pH 7.8 Tris-Hcl buffer solution assessed as ratio of association rate constant to dissociation rate constant in presence of 0.1 M NaCl at 25 degC by QCM sensogram analysis
[18] = Binding affinity to synthetic biotin-labeled 30-mer AT-rich duplex DNA in pH 7.8 Tris-Hcl buffer solution assessed as ratio of association rate constant to dissociation rate constant in presence of 0.1 M NaCl at 25 degC by QCM sensogram analysis
[19] = Binding affinity to synthetic biotin-labeled 30-mer GC-rich duplex DNA in pH 7.4 EDTA buffer solution in presence of 50 mM NaCl at 25 degC by QCM sensogram analysis
[20] = Binding affinity to synthetic biotin-labeled 30-mer GC-rich duplex DNA in pH 7.4 EDTA buffer solution in presence of 200 mM NaCl at 25 degC by QCM sensogram analysis
[21] = Ratio of Ka for synthetic biotin-labeled 30-mer GC-rich duplex DNA in presence of 200 mM NaCl to Ka for synthetic biotin-labeled 30-mer GC-rich duplex DNA in presence of 50 mM NaCl

Compound | Activity (Salmonidae) | IC50 [9] | IC50 at 72 h [10] | IC50 [11] | other results
Cc1c2cc[n+](C)cc2c(C)c2c1[nH]c1ccc(O)cc12 | Active | – | – | – | Ka [1]: 35.1 ×10⁵ /M; Ka [2]: 47.2 ×10⁵ /M; K [3]: 1.28 ×10⁴ /M/s; K [4]: 2.01 ×10⁻³ /s; K [5]: 0.78 ×10⁴ /M/s; K [6]: 8.05 ×10⁻³ /s; Ratio [7]: 0.97 ×10⁶ /M; Ratio [8]: 6.37 ×10⁶ /M
CNC(=O)NCCNCCNC(=O)c1c2cc[n+](C)cc2c(C)c2c1[nH]c1ccccc12 | – | 78 µM | 45 µM | > 100 µM | –
Cc1c2cnccc2c(C(=O)NCCN)c2[nH]c3ccccc3c12 | Active | 2.2 µM | 1.4 µM | 2.4 µM | –
CNC(=O)NCCCNC(=O)c1c2cc[n+](C)cc2c(C)c2c1[nH]c1ccccc12 | Active | 34 µM | 31 µM | > 22 µM | –
CNC(=O)NCCNC(=O)c1c2ccncc2c(C)c2c1[nH]c1ccc(OC)cc12 | – | – | – | 7.6 µM | –
COC(=O)c1c2cc[n+](CCN)cc2c(C)c2c1[nH]c1ccccc12.[Cl-] | Active | 0.52 µM | 0.78 µM | – | Ratio IC50 (HeLa S3): 13 - 37; Ratio IC50 [12]: 3 - 24
COc1ccc2[nH]c3c(C(=O)NCCN)c4ccncc4c(C)c3c2c1 | – | – | – | 1.04 µM | –
CNC(=O)NCCCCNC(=O)c1c2cc[n+](C)cc2c(C)c2c1[nH]c1ccccc12 | Active | > 88 µM | > 100 µM | 96 µM | –
CNC(=O)NCCCCCNC(=O)c1c2cc[n+](C)cc2c(C)c2c1[nH]c1ccccc12 | Active | 80 µM | 37 µM | > 100 µM | –
COC(=O)c1c2cc[n+](C)cc2c(C)c2c1[nH]c1ccccc12 | Active | 1 µM | 1.2 µM | 1.2 µM | –
CC[n+]1c(-c2ccccc2)c2cc(N)ccc2c2ccc(N)cc21 | – | – | – | – | K [13]: 1.2 ×10⁴ /M/s; K [14]: 210 ×10⁻³ /s; K [15]: 0.17 ×10⁴ /M/s; K [16]: 150 ×10⁻³ /s; Ratio [17]: 0.056 ×10⁶ /M; Ratio [18]: 0.011 ×10⁶ /M
Cc1c2c[n+](C)ccc2c(C(=O)NCCNCCN)c2[nH]c3ccccc3c12 | Active | > 100 µM | 86 µM | – | –
Cc1c2c[n+](CCCCCN)ccc2c(C)c2c1c1cc(O)ccc1n2C.[Cl-] | Active | 1.4 µM | – | – | Ratio IC50 (HeLa S3): 13 - 37; Ratio IC50 [12]: 3 - 24
COC(=O)c1c2cc[n+](CCOCCN)cc2c(C)c2c1[nH]c1ccccc12.[Cl-] | Active | 1.12 µM | 1.75 µM | – | Ratio IC50 (HeLa S3): 13 - 37; Ratio IC50 [12]: 3 - 24
Cc1c2c[n+](C)ccc2c(C(=O)NCCN)c2[nH]c3ccccc3c12 | Active | 55 µM | 70 µM | > 100 µM | –
Cc1c2c[n+](CCN)ccc2cc2[nH]c3ccccc3c12 | Active | – | – | – | Ka [1]: 4.29 ×10⁵ /M; Ka [2]: 8.33 ×10⁵ /M
Cc1c2cc[n+](CCN)cc2c(C)c2c1[nH]c1ccccc12 | Active | 3.2 µM | – | 6.58 µM | –
CNC(=O)NCCOCC[n+]1ccc2c(C)c3[nH]c4ccccc4c3c(C)c2c1 | Active | – | – | – | Ka [1]: 3.59 ×10⁵ /M; Ka [2]: 9.9 ×10⁵ /M; Ka [19]: 9.92 ×10⁵ /M; Ka [20]: 5.99 ×10⁵ /M; Ratio [21]: 0.4 to 0.5
Cc1c2cc[n+](C)cc2c(C)c2c1[nH]c1ccccc12 | Active | 0.7 µM | 2 µM | 2.9 µM | –
Cc1c2c[n+](C)ccc2c(C(=O)NCCCN)c2[nH]c3ccccc3c12 | Active | 26 µM | 42 µM | > 26 µM | –
Cc1c2cc[n+](CCOCCN)cc2c(C)c2c1[nH]c1ccccc12.[Cl-] | Active | 0.8 µM | 8.8 µM | – | Ratio IC50 (HeLa S3): 13 - 37; Ratio IC50 [12]: 3 - 24

Compound | Activity (Salmonidae) | IC50 [9] | IC50 at 72 h [10] | IC50 [11] | other results
CNC(=O)NCCNC(=O)c1c2cc[n+](C)cc2c(C)c2c1[nH]c1ccccc12 | Active | > 100 µM | > 100 µM | > 100 µM | –
CNC(=O)NCCNC(=O)c1c2cc[n+](C)cc2c(C)c2c1[nH]c1ccc(OC)cc12 | Active | – | – | 32 µM | –
Cc1c2cc[n+](CCOCCN)cc2c(C)c2c1[nH]c1ccc(O)cc12.[Cl-] | Active | 1 µM | 2.4 µM | – | Ratio IC50 (HeLa S3): 13 - 37; Ratio IC50 [12]: 3 - 24
CNC(=O)NCCOCC[n+]1ccc2c(C)c3c(c(C)c2c1)c1cc(O)ccc1n3C | Active | 2.7 µM | 1.6 µM | – | –
Cc1c2c[n+](CCOCCN)ccc2c(C)c2c1c1cc(O)ccc1n2C | Active | – | – | – | Ka [1]: 102 ×10⁵ /M; Ka [2]: 311 ×10⁵ /M; Ka [19]: 311 ×10⁵ /M; Ka [20]: 162 ×10⁵ /M; Ratio [21]: 0.4 to 0.5
CNC(=O)NCCOCC[n+]1ccc2c(C(=O)OC)c3[nH]c4ccccc4c3c(C)c2c1 | Active | – | – | – | Ka [1]: 7.41 ×10⁵ /M; Ka [2]: 14.8 ×10⁵ /M
Cc1c2c[n+](C)ccc2c(C(=O)NCCCCCN)c2[nH]c3ccccc3c12 | Active | 21 µM | 32 µM | > 100 µM | –
CNC(=O)NCCNC(=O)c1c2ccncc2c(C)c2c1[nH]c1ccccc12 | Active | 15 µM | 11 µM | 15 µM | –
Cc1c2ccncc2c(C)c2c1[nH]c1ccc(O)cc12 | Active | 0.44 µM | 0.9 µM | – | –
Cc1c2c[n+](C)ccc2c(C(=O)NCCCCN)c2[nH]c3ccccc3c12 | Active | > 100 µM | > 100 µM | > 100 µM | –
CNC(=O)NCCOCCNC(=O)c1c2cc[n+](C)cc2c(C)c2c1[nH]c1ccccc12 | Active | 41 µM | 18 µM | – | –
Cc1c2c[n+](C)ccc2c(C(=O)NCCOCCN)c2[nH]c3ccccc3c12 | Active | 48 µM | 60 µM | > 100 µM | –
CNC(=O)NCCOCC[n+]1ccc2c(C)c3[nH]c4ccc(O)cc4c3c(C)c2c1.[Cl-] | Active | 2.2 µM | 5 µM | – | Ratio IC50 (HeLa S3): 13 - 37; Ratio IC50 [12]: 3 - 24
COC(=O)c1c2cc[n+](CCNCCN)cc2c(C)c2c1[nH]c1ccccc12 | Active | 1.2 µM | 1.87 µM | – | –
Cc1c2cnccc2c(C(=O)NCCCCN)c2[nH]c3ccccc3c12 | – | – | – | – | Ka [1]: 0.279 ×10⁵ /M; Ka [2]: 0.733 ×10⁵ /M
COc1ccc2[nH]c3c(C(=O)NCCN)c4cc[n+](C)cc4c(C)c3c2c1 | Active | 58 µM | – | > 100 µM | –
CNC(=O)NCCCCNC(=O)c1c2ccncc2c(C)c2c1[nH]c1ccccc12 | – | – | – | – | Ka [1]: 0.185 ×10⁵ /M; Ka [2]: 0.427 ×10⁵ /M
Cc1c2ccncc2c(C)c2c1[nH]c1ccccc12 [ELLIPTECINE] | Active | 2 µM | 0.3 µM | 2.1 µM | –
CNC(=O)NCCCCC[n+]1ccc2c(C)c3c(c(C)c2c1)c1cc(O)ccc1n3C | – | – | – | – | Ka [1]: 15.8 ×10⁵ /M; Ka [2]: 28.5 ×10⁵ /M; Ka [19]: 28.5 ×10⁵ /M; Ka [20]: 17.9 ×10⁵ /M; Ratio [21]: 0.4 to 0.5
Cc1c2cnccc2c(C)c2c1c1ccccc1n2C | Active | 0.5 µM | – | 0.93 µM | –

Source: ChEMBL document CHEMBL3877309, “Determination of binding modes and binding constants for the complexes of 6H-pyrido[4,3-b]carbazole derivatives with DNA” (Bioorg Med Chem, 2017)
